Tested on: contralateral nasolabial folds of subjects sensitive to glycolic acid
Test: in-vivo sting test (sting/burn propensity and forced choice)
Set-up: species or system human
Details: additive in Base Formula A + 8% glycolic acid, pH 3.8; result in words
Text: Procedure for in-vivo sting test: This was a randomized, double blind study where each subject evaluated one test formulation and a control formulation or two test formulations on contralateral nasolabial folds. […] A maximum of 20 qualified subjects (minimum of 15) were utilized in each subsequent test. One paired comparison was made on each testing day, with a minimum of 3 days between sting testing throughout the study. Subjects underwent a 15 second Ivory soap wash regime immediately prior to product testing for enhancing sting response. […] Study personnel then applied one test formulation and one control or test formulation simultaneously to the appropriate left/right test site, and gently but thoroughly rubbed in. Subjects compared the stinging potential of the two formulations, over a 7.5 minute period using a self-assessment questionnaire.
Sting/Burn Propensity: The degree of stinging/burning felt on the left and right inner cheek and crease of the nose was evaluated using the following scale at the times indicated in Tables below:
0-no stinging/burning; 1-very slight stinging/burning; 2-slight stinging/burning; 3- moderate stinging/burning; 4-moderately high stinging/burning; 5-high stinging/burning; 6-extreme stinging/burning. […]
Statistical significance was determined at p≦0.1.

## C[C@]12CCC(=O)C=C1CC[C@@H]1[C@@H]2[C@@H](O)C[C@@]2(C)[C@H]1CC[C@]2(O)C(=O)CO [hydrocortisone]
  effect of additive on sting of Base Formula A containing 8% glycolic acid: neither hydrocortisone nor arabinogalactan reduced the sting
